Results reported in patent US12410164B2, “Heterocyclic compounds and medical use thereof” (FONDAZIONE TELETHON, priority 2018, dated 2025).
Entries after “also recorded” stand apart in the source; their conditions may differ.

How the values were obtained:
F508del-CFTR [1] = target: T1, F508del-CFTR (Homo sapiens, UniProt P13569, DEL508-508); test: Transepithelial short-circuit current in primary bronchial epithelial cells of F508del homozygous CF patient; format: cell-based; set-up: endogenous in cells; host or cells: primary bronchial and nasal epithelial cells from CF patients homozygous for F508del
Procedure: (§1) The culture and functional study of human primary nasal and bronchial epithelial cells have been described in detail above (Scudieri P, et al. J Physiol. 2012, 590, 6141-6155). Briefly, nasal epithelial cells were taken after informed consent using the “brushing” technique. […] With this mode, the transepithelial potential difference is locked to zero and the resulting current, supplied by the Voltage Clamp is recorded by an AD/DA converter (PowerLab, ADInstruments).
The cells were grown in such a way as to generate differentiated epithelia on porous supports (Snapwell). […] As a channel-protein able to mediate a chloride ion flux, CFTR activity is detected as a transepithelial ionic current. […]

[2] = tested on: calcium-dependent chloride secretion; test: Short-circuit current in bronchial epithelial cells: UTP-activated, inh-A01-inhibited chloride secretion; format: cell-based, human; conditions: compound 10 μM, activated with UTP
Procedure: FIG. 3. PP008 corrective activity on primary epithelial cells. (A) The representative plots and (B) the bar chart show the results obtained by treating bronchial epithelial cells from a patient homozygous for the mutation F508del with PP008 (10 μM) in the presence and absence of VX-809 (1 μM). As control, cells were treated for 24 h with vehicle alone (dimethylsufoxide, DMSO) at the same concentration (0.1%) used to add test compounds. […] (C) Results obtained on nasal epithelial cells of a homozygous F508del patient. *, p<0.05; ***, p<0.001.
as §1

F508del-CFTR [3] = target: T1, F508del-CFTR; test: Transepithelial short-circuit current in primary nasal epithelial cells of F508del homozygous CF patient; format: cell-based; set-up: endogenous in cells; host or cells: primary bronchial and nasal epithelial cells from CF patients homozygous for F508del; conditions: FIG. 3C
Text: The culture and functional study of human primary nasal and bronchial epithelial cells have been described in detail above (Scudieri P, et al. J Physiol. 2012, 590, 6141-6155). Briefly, nasal epithelial cells were taken after informed consent using the “brushing” technique. Bronchial cells were instead obtained by proteolytic digestion of bronchi isolated from the lungs of patients (suffering from CF or other pulmonary pathology (idiopathic pulmonary fibrosis, pulmonary hypertension, emphysema) subjected to transplant operations. The informed consent of the patients was obtained also in this case. After isolation, epithelial cells were cultured in a liquid medium of defined serum-free composition. This medium consists of a mixture of LHC9/RPMI 1640 (1:1) enriched with various hormones and growth factors (Scudieri P, et al. J Physiol. 2012, 590, 6141-6155). After 3-5 passages, necessary for the expansion of the initial number, the cells were seeded at high density on Snapwell porous supports (Corning, 3801). After 24 hours, the culture medium was replaced by a mixture consisting of DMEM and Ham's F12 (1:1) enriched with 2% foetal bovine serum and other supplements. […] With this mode, the transepithelial potential difference is locked to zero and the resulting current, supplied by the Voltage Clamp is recorded by an AD/DA converter (PowerLab, ADInstruments).

G542X-CFTR = test: HS-YFP assay in null CFBE41o− cells transfected with G542X-CFTR; format: cell-based
Procedure: To assess the function and pharmacological sensitivity of G542X-CFTR mutant, inventors used the null version of CFBE41o− cells, i.e. cells with negligible expression of endogenous CFTR and without HS-YFP. Such cells were transiently transfected with the plasmid coding for HS-YFP alone or in combination with: empty plasmid, plasmid coding for wild type CFTR, or plasmid coding for G542X-CFTR. For transfection, cells were seeded in 96-well microplates (30,000 cells/well) in 150 μl of antibiotic-free culture medium. After 24 hours, cells were transfected with the desired plasmids. For each well, 0.2 μg of total plasmid DNA and 0.5 μl of Lipofectamine 2000 (Invitrogen) were first pre-mixed in 50 μl of OPTIMEM (Invitrogen) to generate transfection complexes (60 minutes at room temperature), and then added to the cells. After 24 hour, the complexes were removed by replacement with fresh culture medium. The HS-YFP functional assay was performed after further 24 hours.
To assess the ability of compounds of present invention to improve the rescue of premature stop codon (class I) mutations, we carried out experiments on G542X-CFTR (FIG. 7). Null CFBE41o− cells, devoid of endogenous CFTR expression, were transiently transfected with empty, wild type CFTR or G542X-CFTR plasmids. All cells also received the HS-YFP plasmid to allow functional determination of CFTR-dependent anion transport. […] Where indicated, cells with G542X-CFTR were also treated with G418 (0.5 mg/ml) for 24 hr to induce readthrough of the stop codon mutation, with and without correctors (VX-809 and/or PP028, labeled as VX and PP). […] The activity resulting from wild type CFTR is also shown for comparison.

T1 sequence (P13569 with tags, fused parts or gaps DEL508-508): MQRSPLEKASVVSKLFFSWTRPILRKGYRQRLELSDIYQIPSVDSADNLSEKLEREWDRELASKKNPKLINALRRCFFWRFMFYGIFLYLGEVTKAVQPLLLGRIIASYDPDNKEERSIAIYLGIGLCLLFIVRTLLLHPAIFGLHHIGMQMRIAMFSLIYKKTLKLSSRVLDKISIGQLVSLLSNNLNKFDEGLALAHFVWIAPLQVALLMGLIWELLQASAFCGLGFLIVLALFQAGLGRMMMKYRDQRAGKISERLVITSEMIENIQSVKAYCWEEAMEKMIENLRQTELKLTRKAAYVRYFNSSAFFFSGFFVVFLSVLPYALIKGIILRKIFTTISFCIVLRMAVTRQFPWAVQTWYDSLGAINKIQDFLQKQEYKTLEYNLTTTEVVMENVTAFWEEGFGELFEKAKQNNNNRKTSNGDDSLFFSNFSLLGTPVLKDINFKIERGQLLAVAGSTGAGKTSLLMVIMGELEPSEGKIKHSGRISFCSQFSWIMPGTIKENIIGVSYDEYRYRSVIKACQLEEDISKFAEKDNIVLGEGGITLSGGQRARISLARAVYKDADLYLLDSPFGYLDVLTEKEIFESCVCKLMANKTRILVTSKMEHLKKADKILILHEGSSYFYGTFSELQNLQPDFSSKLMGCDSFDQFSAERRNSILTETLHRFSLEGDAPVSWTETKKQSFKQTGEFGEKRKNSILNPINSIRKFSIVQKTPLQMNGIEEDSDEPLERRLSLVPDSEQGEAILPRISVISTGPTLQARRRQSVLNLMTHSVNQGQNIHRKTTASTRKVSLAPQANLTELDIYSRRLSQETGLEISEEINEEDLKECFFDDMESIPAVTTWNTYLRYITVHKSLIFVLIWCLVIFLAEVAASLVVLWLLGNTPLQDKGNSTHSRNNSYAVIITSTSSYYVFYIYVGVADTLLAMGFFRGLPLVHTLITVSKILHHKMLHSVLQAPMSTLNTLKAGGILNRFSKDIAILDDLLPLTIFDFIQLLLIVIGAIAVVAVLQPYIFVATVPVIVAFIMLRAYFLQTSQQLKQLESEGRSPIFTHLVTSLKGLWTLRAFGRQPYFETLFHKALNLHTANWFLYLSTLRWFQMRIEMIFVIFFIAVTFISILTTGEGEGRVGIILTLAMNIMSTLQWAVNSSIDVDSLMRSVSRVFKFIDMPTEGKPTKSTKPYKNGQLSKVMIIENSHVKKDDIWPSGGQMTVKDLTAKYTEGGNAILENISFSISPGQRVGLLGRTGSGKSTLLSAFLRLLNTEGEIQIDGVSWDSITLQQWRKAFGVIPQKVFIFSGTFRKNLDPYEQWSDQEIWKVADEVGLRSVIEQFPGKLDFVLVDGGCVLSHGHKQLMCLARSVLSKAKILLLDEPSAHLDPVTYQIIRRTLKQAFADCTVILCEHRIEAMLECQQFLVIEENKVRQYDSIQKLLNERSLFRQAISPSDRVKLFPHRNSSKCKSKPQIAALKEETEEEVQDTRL

Row | SMILES | F508del-CFTR activity (current blocked by inh-172) (F508del-CFTR [1]; compound 10 μM alone, 24 h incubation) | F508del-CFTR activity (current blocked by inh-172) of combination (F508del-CFTR [1]; compound 10 μM plus VX-809 1 μM, 24 h) | calcium-dependent chloride secretion [2] | effect of combination with VX-809 on F508del-CFTR current (F508del-CFTR [3]) | CFTR activity (QR) in G542X-CFTR cells versus G418 alone (G542X-CFTR; G418 0.5 mg/ml plus VX-809 1 μM or PP028 10 μM) | comparison of co-treatments with G418 in G542X-CFTR cells (G542X-CFTR; PP028 10 μM versus VX-809 1 μM, each plus G418)
1 | CCOC(=O)c1c(Br)c2c(n1Cc1ccc(C)cc1)-c1[nH]c(=O)c(S(=O)(=O)c3ccccc3)cc1CC2 [PP008, Ethyl 7-(benzenesulfonyl)-3-bromo-1-[(4-methylphenyl)methyl]-8-oxo-4,5,8,9-tetrahydro-1H-pyrrolo[3,2-h]quinoline-2-carboxylate] | significantly increased; also recorded: significant increase in current | significantly greater than the sum of the effects of the individual correctors | does not modify | synergistic effect | – | –
2 | CCOC(=O)c1c(Br)c2c(n1Cc1cccc(C)c1)-c1[nH]c(=O)c(S(=O)(=O)c3ccccc3)cc1CC2 [PP028, Ethyl 3-bromo 1-(3-methylbenzyl)-8-oxo-7-(phenylsulfonyl)-4,5,8,9-tetrahydro-1H-pyrrolo[3,2-h]quinoline-2-carboxylate] | – | – | – | – | further increased activity | significantly more effective than VX-809
